Results as given in PubChem BioAssay (NCI).
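In this assay, cells in 96-well plates receive the compound at five concentrations for 48 hours. Endpoints are linearly interpolated between the surrounding concentrations. Definition used: TGI = concentration required for complete inhibition of growth.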

Experiments:
Assay in all cases: NCI-60 cell line screen, 48 h
[1] = system: ACHN renal
[2] = system: OVCAR-5 ovarian
[3] = system: K-562 leukemia
[4] = system: SR leukemia
[5] = system: HCT-15 colon
[6] = system: SW-620 colon
[7] = system: EKVX NSCLC
[8] = system: RPMI-8226 leukemia
[9] = system: MOLT-4 leukemia
[10] = system: NCI-H226 lung
[11] = system: NCI/ADR-RES ovarian
[12] = system: UO-31 renal
[13] = system: MALME-3M melanoma
[14] = system: SF-539 CNS
[15] = system: SK-MEL-28 melanoma
[16] = system: SF-295 CNS
[17] = system: NCI-H23 lung
[18] = system: M14 melanoma
[19] = system: PC-3 prostate
[20] = system: HL-60(TB) leukemia
[21] = system: UACC-62 melanoma
[22] = system: TK-10 renal
[23] = system: HT29 colon
[24] = system: SNB-75 CNS
[25] = system: SK-MEL-5 melanoma
[26] = system: COLO 205 colon
[27] = system: SF-268 CNS
[28] = system: MDA-MB-435
[29] = system: A498 renal
[30] = system: SN12C renal
[31] = system: NCI-H522 lung
[32] = system: HCC-2998 colon
[33] = system: SK-MEL-2 melanoma
[34] = system: SK-OV-3 ovarian
[35] = system: BT-549 breast
[36] = system: HCT-116 colon
[37] = system: MDA-N
[38] = system: OVCAR-8 ovarian
[39] = system: MDA-MB-231 breast
[40] = system: 786-0 renal
[41] = system: RXF 393 renal
[42] = system: LOX IMVI melanoma
[43] = system: SNB-19 CNS
[44] = system: OVCAR-4 ovarian
[45] = system: MCF7 breast
[46] = system: KM12 colon
[47] = system: CAKI-1 renal
[48] = system: HOP-62 NSCLC
[49] = system: DU-145 prostate
[50] = system: T-47D breast

**Q.** With `CC(=O)Nc1ccc2c3c(cc(O)c2c1)N(C(=O)CCCCC(=O)N1CC(CCl)c2c1cc(O)c1cc(NC(C)=O)ccc21)CC3CCl` (stereo not given) as the compound, how does the TGI [1] read?
**A.** 1490 nM

**Q.** What about the TGI [2] of the same compound?
**A.** 8540 nM

**Q.** And the TGI [3]?
**A.** > 100000 nM

**Q.** And the TGI [4]?
**A.** 27.8 nM

**Q.** And the TGI [5]?
**A.** > 70600 nM

**Q.** What about the TGI [6] of the same compound?
**A.** > 100000 nM

**Q.** What about the TGI [7] of the same compound?
**A.** 12800 nM

**Q.** What about the TGI [8] of the same compound?
**A.** 635 nM

**Q.** What about the TGI [9] of the same compound?
**A.** 17.6 nM

**Q.** What about the TGI [10] of the same compound?
**A.** 763 nM

**Q.** And the TGI [11]?
**A.** > 100000 nM

**Q.** What about the TGI [12] of the same compound?
**A.** > 44600 nM

**Q.** And the TGI [13]?
**A.** 575 nM

**Q.** What about the TGI [14] of the same compound?
**A.** 1340 nM

**Q.** And the TGI [15]?
**A.** > 33300 nM

**Q.** What about the TGI [16] of the same compound?
**A.** > 24100 nM

**Q.** What about the TGI [17] of the same compound?
**A.** 744 nM

**Q.** And the TGI [18]?
**A.** 1160 nM

**Q.** And the TGI [19]?
**A.** > 33700 nM

**Q.** And the TGI [20]?
**A.** 4390 nM

**Q.** What about the TGI [21] of the same compound?
**A.** 220 nM

**Q.** And the TGI [22]?
**A.** 11900 nM

**Q.** What about the TGI [23] of the same compound?
**A.** > 30400 nM

**Q.** And the TGI [24]?
**A.** 297 nM

**Q.** And the TGI [25]?
**A.** 391 nM

**Q.** And the TGI [26]?
**A.** 376 nM

**Q.** And the TGI [27]?
**A.** 2770 nM

**Q.** And the TGI [28]?
**A.** 710 nM

**Q.** And the TGI [29]?
**A.** 390 nM

**Q.** What about the TGI [30] of the same compound?
**A.** 6400 nM

**Q.** And the TGI [31]?
**A.** 545 nM

**Q.** What about the TGI [32] of the same compound?
**A.** 443 nM

**Q.** And the TGI [33]?
**A.** 316 nM

**Q.** And the TGI [34]?
**A.** > 64500 nM

**Q.** What about the TGI [35] of the same compound?
**A.** 2310 nM

**Q.** What about the TGI [36] of the same compound?
**A.** > 100000 nM

**Q.** And the TGI [37]?
**A.** 566 nM

**Q.** And the TGI [38]?
**A.** > 32400 nM

**Q.** And the TGI [39]?
**A.** 733 nM

**Q.** What about the TGI [40] of the same compound?
**A.** 992 nM

**Q.** And the TGI [41]?
**A.** 410 nM

**Q.** What about the TGI [42] of the same compound?
**A.** > 100000 nM

**Q.** What about the TGI [43] of the same compound?
**A.** 5020 nM

**Q.** And the TGI [44]?
**A.** > 27700 nM

**Q.** What about the TGI [45] of the same compound?
**A.** 264 nM

**Q.** And the TGI [46]?
**A.** 14000 nM

**Q.** What about the TGI [47] of the same compound?
**A.** 18100 nM

**Q.** And the TGI [48]?
**A.** 8780 nM

**Q.** And the TGI [49]?
**A.** 209 nM

**Q.** What about the TGI [50] of the same compound?
**A.** 97.3 nM
